Measured values as given in the NIST ThermoML archive (doi:10.1016/j.fluid.2018.08.017).
Numbers after ± are expanded uncertainties.

Legend:
[1] = wn = mass fraction of the nth substance listed; conditions: 101 kPa, Liquid, w1 = 1; for speed of sound: Single path-length method; for mass density: Vibrating tube method
[2] = Liquid; for speed of sound: Single path-length method; for mass density: Vibrating tube method
[3] = refractive index (Na D-line) (dimensionless); conditions: 101.33 kPa, Liquid, Standard Abbe refractometry

CCCCn1cc[n+](C)c1.F[B-](F)(F)F [1-butyl-3-methylimidazolium tetrafluoroborate] + CN1CCCC1=O
[1]
Conditions | mass density [kg/m3] | speed of sound [m/s] | viscosity [mPa·s]
293.15 K | 1206 ± 1.3 | 1576.7 ± 2.1 | 129.34 ± 13
298.15 K | 1202.4 ± 1.3 | 1564.7 ± 2.1 | 98.95 ± 6.9
303.15 K | 1198.8 ± 1.3 | 1552.8 ± 2.1 | 77 ± 3.5
308.15 K | 1195.2 ± 1.3 | 1541.2 ± 2.1 | 60.9 ± 1.4
313.15 K | 1191.7 ± 1.3 | 1529.6 ± 2.1 | 49.2 ± 1.3
318.15 K | 1188.1 ± 1.2 | 1518.2 ± 2.1 | 40.27 ± 1
323.15 K | 1184.6 ± 1.2 | 1506.9 ± 2.1 | 33.44 ± 0.85
328.15 K | 1181.1 ± 1.2 | 1495.7 ± 2.1 | 28.12 ± 0.72
333.15 K | 1177.6 ± 1.2 | 1484.5 ± 2.1 | 23.94 ± 0.61
338.15 K | 1174.2 ± 1.2 | 1473.2 ± 2.1 | 20.62 ± 0.53
343.15 K | 1170.7 ± 1.2 | 1461.7 ± 2.1 | 17.92 ± 0.46

CN1CCCC1=O [N-methylpyrrolidone]
[2], 101 kPa
Conditions | mass density [kg/m3] | speed of sound [m/s] | viscosity [mPa·s]
293.15 K | 1034.1 ± 0.2 | 1565.7 ± 0.9 | 1.786 ± 0.049
298.15 K | 1029.7 ± 0.2 | 1546.1 ± 0.9 | 1.693 ± 0.047
303.15 K | 1025.2 ± 0.2 | 1526.7 ± 0.9 | 1.564 ± 0.044
308.15 K | 1020.8 ± 0.2 | 1507.5 ± 0.9 | 1.448 ± 0.042
313.15 K | 1016.3 ± 0.2 | 1488.3 ± 0.9 | 1.346 ± 0.039
318.15 K | 1011.9 ± 0.2 | 1469.2 ± 0.9 | 1.258 ± 0.037
323.15 K | 1007.4 ± 0.2 | 1450.4 ± 0.9 | 1.176 ± 0.035
328.15 K | 1002.9 ± 0.2 | 1431.4 ± 0.9 | 1.103 ± 0.033
333.15 K | 998.4 ± 0.2 | 1412.8 ± 0.9 | 1.037 ± 0.032
338.15 K | 993.9 ± 0.2 | 1394.4 ± 0.9 | 0.9769 ± 0.03
343.15 K | 989.4 ± 0.2 | 1376 ± 0.9 | 0.923 ± 0.029

Conditions | refractive index
[3], 298.15 K | 1.469 ± 0.001

CCCCCC [hexane]
Conditions | mass density [kg/m3]
[2], 313.15 K, 101.33 kPa | 641.2 ± 0.3

Conditions | refractive index
[3], 298.15 K | 1.372 ± 0.001

CCCCn1cc[n+](C)c1.F[B-](F)(F)F [1-butyl-3-methylimidazolium tetrafluoroborate]
[2]
Conditions | mass density, 101 kPa [kg/m3] | mass density, 101.33 kPa [kg/m3] | speed of sound, 101 kPa [m/s] | viscosity, 101 kPa [mPa·s]
293.15 K | 1206 ± 1.3 | – | 1576.7 ± 2.1 | 129.34 ± 13
298.15 K | 1202.4 ± 1.3 | – | 1564.7 ± 2.1 | 98.95 ± 6.9
303.15 K | 1198.8 ± 1.3 | – | 1552.8 ± 2.1 | 77 ± 3.5
308.15 K | 1195.2 ± 1.3 | – | 1541.2 ± 2.1 | 60.9 ± 1.4
313.15 K | 1191.7 ± 1.3 | – | 1529.6 ± 2.1 | 49.2 ± 1.3
318.15 K | 1188.1 ± 1.2 | 1188.2 ± 1.2 | 1518.2 ± 2.1 | 40.27 ± 1
323.15 K | 1184.6 ± 1.2 | – | 1506.9 ± 2.1 | 33.44 ± 0.85
328.15 K | 1181.1 ± 1.2 | – | 1495.7 ± 2.1 | 28.12 ± 0.72
333.15 K | 1177.6 ± 1.2 | – | 1484.5 ± 2.1 | 23.94 ± 0.61
338.15 K | 1174.2 ± 1.2 | – | 1473.2 ± 2.1 | 20.62 ± 0.53
343.15 K | 1170.7 ± 1.2 | – | 1461.7 ± 2.1 | 17.92 ± 0.46

Conditions | refractive index
[3], 293.15 K | 1.423 ± 0.001
